This note sets out measurements from the OPERA property sets (Mansouri et al. 2018).

One may read the melting point as the temperature, or range, at which the solid turns liquid. In general, boiling point refers to the temperature at which the vapour pressure of the liquid equals the pressure above it.

Details in one series: not given
With `O=C(O)c1ccccc1O`, the log10 Koa was 7.44, the log10 vapour pressure (mmHg) is -4.09, the melting point was 158 °C and the ready biodegradability entry is reported as “readily biodegradable”.

Turning to `CNCCS(=O)(=O)O`, the melting point came out at 242 °C and the ready biodegradability result is “readily biodegradable”.

Take `O=C(O)c1c(F)c(F)cc(F)c1F`: the melting point is 151 °C.

`CCCCCCCCCCCCCl`: the boiling point was 260 °C, the log10 vapour pressure (mmHg) is -2.2, the melting point was -9.3 °C and the ready biodegradability entry is “readily biodegradable”.

The compound `O=Cc1ccc(F)cc1` displayed a boiling point of 182 °C and a melting point of -10 °C.

For `O=S1(=O)CCN(CN2CCS(=O)(=O)NC2)CN1`, the melting point was found to be 156 °C.

`COC(=O)C1C2C=CC(C2)C1C(=O)OC` (stereo unspecified) had a melting point of 38 °C.

On to `FC(Cl)CCl` (stereo unspecified), for which the boiling point was 73.7 °C and the melting point is -60 °C.

Consider `CC(C)CCc1ccccc1`, for which the boiling point was found to be 195 °C.

Take `CN(C)C(=O)Nc1cc(C(C)(C)C)on1`: the log10 Koc (L/kg) was determined as 2.47, the log10 vapour pressure (mmHg) was -6.42, the melting point is 120 °C and the ready biodegradability entry is recorded as “readily biodegradable”.

Take `CCCCCCCCCCCCCCCC(C)C`: the boiling point came out at 311 °C and the melting point is 5.7 °C.

`CC(=O)OCC=Cc1ccccc1`: the boiling point turned out to be 265 °C.

For the compound `CNC(=O)Oc1cc(C)c(SC)c(C)c1`, the log10 Henry constant (atm·m³/mol) was -8.93, the log10 Koc (L/kg) was found to be 2.32, the log10 vapour pressure (mmHg) is -6.57 and the melting point was found to be 120 °C.

`O=CC=Cc1ccc([N+](=O)[O-])o1` registered a melting point of 118 °C.

Take `CCCOC/C(=N\c1ccc(Cl)cc1C(F)(F)F)n1ccnc1`: the log10 vapour pressure (mmHg) is -5.85 and the melting point was found to be 63.5 °C.

In turn, `COc1ccc(C(C)=O)c(O)c1` displayed a melting point of 52.5 °C.

As to `Nc1ccc(I)cc1`, the melting point is 67.5 °C.

In the case of `O=C([O-])c1ccccc1.[NH4+]`, the melting point stood at 194 °C.

Compound `Cc1ccc2c(ccc3ccccc32)c1` showed a log10 biodegradation half-life (days) of 1.36 and a melting point of 58 °C.

In turn, `O[C@@H]1C[C@H]2CC[C@@H]1C2` registered a boiling point of 176 °C and a melting point of 133 °C.

In the case of `O=C1OCc2c(Cl)c(Cl)c(Cl)c(Cl)c21`, the log10 Koc (L/kg) amounted to 3.3, the log10 vapour pressure (mmHg) was -7.65 and the melting point is 210 °C.

Consider `CCCCC(=O)OC`, for which the boiling point stood at 127 °C, the log10 Henry constant (atm·m³/mol) is -3.5 and the log10 vapour pressure (mmHg) is 1.28.

Consider `Oc1ccc(Br)cc1Cl`, for which the boiling point worked out at 234 °C and the melting point worked out at 50.5 °C.

In turn, `CC(=O)[C@H]1CC[C@H]2[C@@H]3CC[C@H]4C[C@H](O)CC[C@]4(C)[C@H]3CC[C@]12C` yielded a melting point of 174 °C.

`Nc1ncnc2c1ncn2[C@H]1CC[C@@H](CO)O1`: the melting point stood at 185 °C.

Consider `Cc1ccc(C)c(Cc2ccccc2)c1`, for which the ready biodegradability entry is “not readily biodegradable”.

With `CCOC(=O)CO`, the boiling point came to 160 °C.

`CCC(COC(=O)c1cc(OC)c(OC)c(OC)c1)(c1ccccc1)N(C)C` (stereo unspecified) had a melting point of 79 °C.

Consider `O=C1C=CC(=O)O1`, for which the boiling point was 202 °C, the log10 vapour pressure (mmHg) is -0.602, the melting point was determined as 52.8 °C and the ready biodegradability entry is reported as “readily biodegradable”.

As to `CCCC(=O)OC`, the boiling point amounted to 103 °C, the log10 Henry constant (atm·m³/mol) was -3.69, the log10 vapour pressure (mmHg) was 1.51 and the melting point is -85.8 °C.

In the case of `Clc1ccc2ccccc2c1`, the boiling point is 256 °C, the log10 Henry constant (atm·m³/mol) is -3.49, the log10 Koa came to 5.8 and the log10 vapour pressure (mmHg) is -1.91. In addition, the melting point was 61 °C.

Take `CCOc1ccc2ccccc2c1C=O`: the melting point is 115 °C.

As for `N#CC(Br)(Br)C(N)=O`, the log10 vapour pressure (mmHg) is -3.05, the melting point came out at 124 °C and the ready biodegradability entry is on record as “not readily biodegradable”.

`CC[C@H](CC[C@@H](C)[C@H]1CC[C@H]2C3=CC=C4C[C@@H](O)CC[C@]4(C)[C@H]3CC[C@]12C)C(C)C` gave a melting point of 144 °C.

`CN(C)C(=O)c1ccccc1` had a log10 Koc (L/kg) of 1.6 and a melting point of 44 °C.

Compound `BrCc1ccc2ccccc2c1` returned a melting point of 56 °C.

Compound `Clc1ccc2nccnc2c1` had a melting point of 64 °C.

Compound `CSc1c(N)nc(N)nc1Cl` yielded a log10 Koc (L/kg) of 2.08.

With `CC(C)(C)C1CCC(=O)CC1`, the melting point was found to be 48.5 °C.

Still in this series, the particulars now being: fish.
As for `CCCCCc1ccc(-c2ccccc2)cc1`, the log10 biotransformation half-life (days) was determined as 0.03.

For the compound `Cc1ccc2c(ccc3ccccc32)c1`, the log10 BCF stood at 3.48.

Compound `Cc1ccc(C)c(Cc2ccccc2)c1` registered a log10 BCF of 3.14 and a log10 biotransformation half-life (days) of 0.45.

With `Clc1ccc2ccccc2c1`, the log10 BCF was 3.63.
